Consider 22 compounds from paper PMC11396514, “Synthesis and Biological Evaluation of Novel Piperidine-3-Carboxamide Derivatives as Anti-Osteoporosis Agents Targeting Cathepsin K” (Molecules, 2024).

Molecules are shown by their SMILES.

The target in one data set is T1, Recombinant human Cat K (Homo sapiens, UniProt P43235).
T1 sequence (P43235 115-329): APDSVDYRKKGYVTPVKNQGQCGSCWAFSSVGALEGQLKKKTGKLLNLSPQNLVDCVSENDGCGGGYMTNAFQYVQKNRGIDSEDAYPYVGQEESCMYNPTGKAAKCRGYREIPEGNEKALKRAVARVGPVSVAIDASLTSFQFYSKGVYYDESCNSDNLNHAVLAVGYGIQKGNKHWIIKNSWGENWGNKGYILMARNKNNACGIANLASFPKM
Description: In vitro enzymatic assay of Cat K inhibition (Z-Phe-Arg-AMC fluorescence). Format: biochemical. The settings on record: pH 6.0, substrate Z-Phe-Arg-AMC, read-out: Cat K IC50 (µM) ± SD. As for the experimental part:
Compounds were tested at eight concentrations (100–0.001 µM). Recombinant human Cat K (5.5 ng/mL) in reaction buffer (50 µL) containing sodium acetate (50 mM), EDTA (2.5 mM), and DTT (1 mM) was added to a 96-well plate containing the test compounds at pH 6.0. The plate was incubated at 37 °C for 15 min, and the fluorescence (F1) was measured at 355 nm excitation and 460 nm emission using a microplate reader (Wallac 1420 Victor2, Norwalk, CA, USA). Subsequently, Z-Phe-Arg-AMC (20 µL, 10 µM) was added, and the plate was incubated at 37 °C for 1 h. Fluorescence (F2) was measured again at 355 nm excitation and 460 nm emission. The inhibition rate was calculated using the formula: inhibition (%) = [control (F2 − F1) − sample (F2–F1)]/[control (F2 − F1) − blank (F2 − F1)] × 100%. IC50 values were calculated using the SPSS 17.0 software.

In data set [1] the test system is RANKL-induced RAW264.7 cells. In words: In vitro anti-bone resorption assay: CTX-I released into culture medium (ELISA), cells on bovine femur slices. Format: cell-based. The following applies: compound 1 µM, 5 days; for CTX-I concentration compared to the model group (in words): vs untreated model group. The source says: (§1) Type I collagen, the predominant structural protein in bone, constitutes approximately 90% of the bone matrix protein [22]. During bone renewal, type I collagen is degraded, releasing short peptide fragments such as the C-terminal peptide of type I collagen (CTX-I) into the bloodstream. The concentration of CTX-I in the patient’s blood serves as a crucial biomarker for evaluating the degree of osteoporosis. In vitro, bone resorption can be assessed by measuring the concentration of CTX-I using a model in which osteoclasts are cultured on bone slices. In this experiment, the in vitro anti-bone resorption activities of the test compounds were evaluated in RANKL-induced RAW264.7 cells. This evaluation was based on the concentration of CTX-I released into the cell culture medium due to bone degradation, as well as the area of bone resorption pits formed on bone slices.
(§2) RAW264.7 cells, obtained from the cell bank of the Chinese Academy of Medical Sciences, were seeded into 96-well plates at a density of 1 × 10^5 cells per well with bovine femur slices. To induce cell differentiation, 50 ng mL^−1 of RANKL was added to the RAW264.7 cells. The cells were cultured for 5 days at 37 °C under 5% CO2 with the test compounds at a concentration of 1 µM. The culture supernatant was collected to measure the CTX-I concentration using ELISA. The bone slices were fixed with 2.5% glutaraldehyde for 7 min, then washed 3 times with 0.25 mol/L ammonium hydroxide, dehydrated using a series of ethanol solutions (40%, 75%, 80%, 95%, and anhydrous ethanol), and dried naturally. After staining with 1% toluidine blue solution at room temperature for 3–4 min, the bone slices were rinsed with distilled water and analyzed using an optical microscope. Bone resorption areas were calculated using image analysis software (iBright CL1500, Redmond, WA, USA).
Background: ELISA stands for enzyme-linked immunosorbent assay.

Data set [2] deals with RANKL-induced RAW264.7 cells. Description: In vitro anti-bone resorption assay: area of bone resorption pits on bone slices (toluidine blue). The settings on record: compound 1 µM, 5 days, compared with MIV-711 / model group. The data set is classed as cell-based.
Source text: as §1, §2

By IC50 is commonly meant the concentration that gives 50% inhibition. One may read the melting point as the temperature of the solid-liquid transition. Regarding `COc1ccc(CNC(=O)[C@@H]2CCCN(S(=O)(=O)c3ccc(Cl)cc3)C2)cc1` [Compound H-18, (R)-1-((4-chlorophenyl)sulfonyl)-N-(4-methoxybenzyl)piperidine-3-carboxamide], the melting point was in the range of 147 to 148.7 °C. For the same compound, the IC50 on Recombinant human Cat K was determined as 0.78 ± 0.3 µM.
Turning to `COc1ccc(S(=O)(=O)N2CCC[C@@H](C(=O)NCc3ccccc3Br)C2)cc1` [Compound H-10, (R)-N-(2-bromobenzyl)-1-((4-methoxyphenyl)sulfonyl)piperidine-3-carboxamide], the melting point is 153.7 to 154.5 °C. Also, at Recombinant human Cat K, the IC50 worked out at 2.18 ± 0.39 µM.
On to `COc1ccc(S(=O)(=O)N2CCC[C@@H](C(=O)NCc3cccc(Cl)c3)C2)cc1` [Compound H-8, (R)-N-(3-chlorobenzyl)-1-((4-methoxyphenyl)sulfonyl)piperidine-3-carboxamide], for which the melting point was in the range of 146.1 to 148.7 °C. On Recombinant human Cat K, the IC50 was found to be 0.45 ± 0.11 µM. Further, the “CTX-I concentration compared to the model group (in words)” value in data set [1] is “reduced CTX-I concentration”.
Take `COc1ccc(S(=O)(=O)N2CCC[C@@H](C(=O)NCc3ccccc3C)C2)cc1` [Compound H-1, (R)-1-((4-methoxyphenyl)sulfonyl)-N-(2-methylbenzyl)piperidine-3-carboxamide]: the melting point was 170.4 to 171.4 °C. In addition, the IC50 at Recombinant human Cat K was 3.52 ± 0.44 µM.
`COc1ccc(CNC(=O)[C@@H]2CCCN(S(=O)(=O)c3cccc(Cl)c3)C2)cc1` [Compound H-17, (R)-1-((3-chlorophenyl)sulfonyl)-N-(4-methoxybenzyl)piperidine-3-carboxamide] gave a melting point of 117.1 to 119.9 °C. The IC50 at Recombinant human Cat K came out at 0.47 ± 0.12 µM. Besides, in data set [1], the “CTX-I concentration compared to the model group (in words)” value is reported as “reduced CTX-I concentration”. The “Anti-bone resorption activity by area of bone resorption pits (in words)” value in data set [2] was “comparable to that of MIV-711”.
In the case of `C#C[C@@H]1CN(C(=O)[C@H](CC(C)C)NC(=O)c2ccc(-c3nc(N4CCN(C)CC4)sc3F)cc2)[C@@H]2C(=O)CO[C@H]12` [MIV-711, reference compound], the IC50 at Recombinant human Cat K is 0.09 ± 0.02 µM. Moreover, the “CTX-I concentration in the cell culture medium” value in data set [1] (ELISA) came to 21.73 ± 3.18 nM.
Compound `COc1ccc(S(=O)(=O)N2CCC[C@@H](C(=O)NCc3ccccc3OC)C2)cc1` [Compound H-4, (R)-N-(2-methoxybenzyl)-1-((4-methoxyphenyl)sulfonyl)piperidine-3-carboxamide] came in with a melting point of 143.7 to 144.2 °C. Also, the IC50 on Recombinant human Cat K came out at 2.48 ± 0.37 µM.
As to `COc1ccc(S(=O)(=O)N2CCC[C@@H](C(=O)NCc3ccc(Br)cc3)C2)cc1` [Compound H-12, (R)-N-(4-bromobenzyl)-1-((4-methoxyphenyl)sulfonyl)piperidine-3-carboxamide], the melting point fell in the range of 148.1 to 149.3 °C. Moreover, the IC50 on Recombinant human Cat K is 0.22 ± 0.05 µM. Further, in data set [1], the “CTX-I concentration compared to the model group (in words)” value is “reduced CTX-I concentration”. In data set [2], the “Anti-bone resorption activity by area of bone resorption pits (in words)” value is “comparable to that of MIV-711”.
Compound `COc1ccc(S(=O)(=O)N2CCC[C@@H](C(=O)NCc3cccc(Br)c3)C2)cc1` [Compound H-11, (R)-N-(3-bromobenzyl)-1-((4-methoxyphenyl)sulfonyl)piperidine-3-carboxamide] gave a melting point of 124.7 to 126.5 °C. Also, the IC50 at Recombinant human Cat K turned out to be 0.66 ± 0.2 µM. Besides, in data set [1], the “CTX-I concentration compared to the model group (in words)” value is “reduced CTX-I concentration”.
As for `COc1ccc(CNC(=O)[C@@H]2CCCN(S(=O)(=O)c3cccc(C)c3)C2)cc1` [Compound H-20, (R)-N-(4-methoxybenzyl)-1-(m-tolylsulfonyl)piperidine-3-carboxamide], the melting point is 152.6 to 154.2 °C. The IC50 on Recombinant human Cat K was 3.82 ± 0.91 µM.
`COc1ccc(CNC(=O)[C@@H]2CCCN(S(=O)(=O)c3cccc(Br)c3)C2)cc1` [Compound H-14, (R)-1-((3-bromophenyl)sulfonyl)-N-(4-methoxybenzyl)piperidine-3-carboxamide] gave a melting point of 203.5 to 204.2 °C. The IC50 at Recombinant human Cat K was determined as 0.91 ± 0.15 µM.
For the compound `COc1ccc(CNC(=O)[C@@H]2CCCN(S(=O)(=O)c3ccc(Br)cc3)C2)cc1` [Compound H-15, (R)-1-((4-bromophenyl)sulfonyl)-N-(4-methoxybenzyl)piperidine-3-carboxamide], the melting point is 152.4 to 154.4 °C. Besides, the IC50 on Recombinant human Cat K amounted to 0.85 ± 0.19 µM.
With `COc1ccc(S(=O)(=O)N2CCC[C@@H](C(C)=O)C2)cc1` [Compound F-12], the IC50 at Recombinant human Cat K turned out to be 13.5 ± 2.16 µM.
For the compound `COc1ccc(S(=O)(=O)N2CCC[C@@H](C(=O)NCc3cccc(OC)c3)C2)cc1` [Compound H-5, (R)-N-(3-methoxybenzyl)-1-((4-methoxyphenyl)sulfonyl)piperidine-3-carboxamide], the melting point was in the range of 130.2 to 131.2 °C. In addition, the IC50 at Recombinant human Cat K turned out to be 2.93 ± 0.4 µM.
Compound `COc1ccc(S(=O)(=O)N2CCC[C@@H](C(=O)NCc3ccc(C)cc3)C2)cc1` [Compound H-3, (R)-1-((4-methoxyphenyl)sulfonyl)-N-(4-methylbenzyl)piperidine-3-carboxamide] had a melting point of 182.3 to 182.7 °C. For the same compound, at Recombinant human Cat K, the IC50 came to 4.39 ± 0.65 µM.
The like results for `COc1ccc(CNC(=O)[C@@H]2CCCN(S(=O)(=O)c3ccc(OC)cc3)C2)cc1` [Compound H-6, (R)-N-(4-methoxybenzyl)-1-((4-methoxyphenyl)sulfonyl)piperidine-3-carboxamide] were, in that order, 139.4 to 140.9 °C and 3.64 ± 0.39 µM.
The like results for `COc1ccc(CNC(=O)[C@@H]2CCCN(S(=O)(=O)c3ccc(C)cc3)C2)cc1` [Compound H-21, (R)-N-(4-methoxybenzyl)-1-tosylpiperidine-3-carboxamide] were, in that order, 162.9 to 163.7 °C and 3.65 ± 0.86 µM.
The like results for `COc1ccc(S(=O)(=O)N2CCC[C@@H](C(=O)NCc3ccccc3Cl)C2)cc1` [Compound H-7, (R)-N-(2-chlorobenzyl)-1-((4-methoxyphenyl)sulfonyl)piperidine-3-carboxamide] were, in that order, 192.3 to 193.6 °C and 1.06 ± 0.18 µM.
For `COc1ccc(CNC(=O)[C@@H]2CCCN(S(=O)(=O)c3ccccc3Br)C2)cc1` [Compound H-13, (R)-1-((2-bromophenyl)sulfonyl)-N-(4-methoxybenzyl)piperidine-3-carboxamide], the melting point is 189.5 to 190.5 °C. Moreover, the IC50 at Recombinant human Cat K turned out to be 0.74 ± 0.12 µM. For the same compound, in data set [1], the “CTX-I concentration compared to the model group (in words)” value is “reduced CTX-I concentration”.
As for `COc1ccc(S(=O)(=O)N2CCC[C@@H](C(=O)NCc3cccc(C)c3)C2)cc1` [Compound H-2, (R)-1-((4-methoxyphenyl)sulfonyl)-N-(3-methylbenzyl)piperidine-3-carboxamide], the melting point is 189.8 to 190.1 °C. The IC50 on Recombinant human Cat K was 4.76 ± 0.71 µM.
In the case of `COc1ccc(CNC(=O)[C@@H]2CCCN(S(=O)(=O)c3ccccc3Cl)C2)cc1` [Compound H-16, (R)-1-((2-chlorophenyl)sulfonyl)-N-(4-methoxybenzyl)piperidine-3-carboxamide], the melting point fell in the range of 162.3 to 164.5 °C. For the same compound, on Recombinant human Cat K, the IC50 is 2.03 ± 0.43 µM. Further, in data set [1], the “CTX-I concentration compared to the model group (in words)” value was “reduced CTX-I concentration”.
Regarding `COc1ccc(CNC(=O)[C@@H]2CCCN(S(=O)(=O)c3ccccc3C)C2)cc1` [Compound H-19, (R)-N-(4-methoxybenzyl)-1-(o-tolylsulfonyl)piperidine-3-carboxamide], the melting point fell in the range of 108.3 to 109.4 °C. For the same compound, on Recombinant human Cat K, the IC50 came out at 5.33 ± 0.94 µM.
